Molecular target: T1, ERR1 (also known as ERR-α or ERR-1) (Homo sapiens, UniProt P11474)
T1 sequence (P11474 193-421 limits assumed): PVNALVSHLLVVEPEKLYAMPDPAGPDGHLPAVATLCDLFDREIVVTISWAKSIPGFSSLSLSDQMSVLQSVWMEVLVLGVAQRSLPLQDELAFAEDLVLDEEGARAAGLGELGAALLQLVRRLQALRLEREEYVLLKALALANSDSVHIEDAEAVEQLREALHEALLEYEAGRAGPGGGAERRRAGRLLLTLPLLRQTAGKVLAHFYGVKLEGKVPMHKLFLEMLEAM
Assay: TR-FRET assay (disruption of co-activator peptide binding)
Assay type: biochemical
Conditions: 6His-tagged ERR1 LBD, GST-hSRC2 co-activator polypeptide; average of 3 independent experiments
Method in brief: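 His6-ERR1 LBD (6 nM) with GST-SRC-2 peptide (6 nM), anti-GST Eu cryptate (30 nM) and anti-His XL665 (7.5 nM) in Tris pH 8/KCl/DTT/BSA buffer, equilibrated 4-18 h at 25 °C. Ex 340, em 615/665 nm; hyperbolic dose-response fit, mean of 3 experiments.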

Compound | EC50 [nM]
C=C(C)c1ccc(Cn2ncc3cc(/C=C4\SC(N5CCN(C)CC5)=NC4=O)ccc32)c(C(F)(F)F)c1 [Example 30, 5-[1-(4-Isopropenyl-2-trifluoromethyl-benzyl)-1H-indazol-5-ylmethylene]-2-(4-methyl-piperazin-1-yl)-thiazol-4-one] | 23
COCCN1CCN(C2=NC(=O)/C(=C/c3ccc4c(cnn4Cc4ccc(C(F)(F)F)cc4C(F)(F)F)c3)S2)CC1 [Example 66, 5-[1-(2,4-Bis-trifluoromethyl-benzyl)-1H-indazol-5-ylmethylene]-2-[4-(2-methoxy-ethyl)-piperazin-1-yl]-thiazol-4-one] | 24.9
CC[C@H]1CN(C2=NC(=O)/C(=C/c3ccc4c(cnn4Cc4ccc(Cl)cc4C(F)(F)F)c3)S2)CCN1 (stereo in doubt) [Example 123, 5-[1-(4-Chloro-2-trifluoromethyl-benzyl)-1H-indazol-5-ylmethylene]-2-(3-ethyl-piperazin-1-yl)-thiazol-4-one] | 5
COc1ccc(Cn2ncc3cc(/C=C4\SC(N5CCN(C)CC5)=NC4=O)ccc32)c(C(F)(F)F)c1 [Compound 21, 5-[1-(4-Methoxy-2-trifluoromethyl-benzyl)-1H-indazol-5-ylmethylene]-2-(4-methyl-piperazin-1-yl)-thiazol-4-one] | 3
N#Cc1nn(Cc2ccc(Cl)cc2C(F)(F)F)c2ccc(/C=C3\SC(N4CCN(CC5CC5)CC4)=NC3=O)cc12 [Example 224, 1-[4-Chloro-2-(trifluoromethyl)benzyl]-5-({2-[4-(cyclopropylmethyl)piperazin-1-yl]-4-oxo-1,3-thiazol-5(4H)-ylidene}methyl)-1H-indazole-3-carbonitrile] | 70
Cc1nn(Cc2ccc(Cl)cc2C(F)(F)F)c2ccc(/C=C3\SC(N4CCC(C(=O)O)CC4)=NC3=O)cc12 [Example 276, 1-[5-({1-[4-Chloro-2-(trifluoromethyl)benzyl]-3-methyl-1H-indazol-5-yl}methylidene)-4-oxo-4,5-dihydro-1,3-thiazol-2-yl]piperidine-4-carboxylic acid] | 24
O=C1N=C(N2CC(C(=O)O)C2)S/C1=C\c1ccc2c(cnn2Cc2ccc(Br)cc2C(F)(F)F)c1 [Example 36, 1-{5-[1-(4-Bromo-2-trifluoromethyl-benzyl)-1H-indazol-5-ylmethylene]-4-oxo-4,5-dihydro-thiazol-2-yl}-azetidine-3-carboxylic acid] | 5.4
C[C@@H]1CN(C2CN(C3=NC(=O)/C(=C/c4ccc5c(cnn5Cc5ccc(Cl)cc5C(F)(F)F)c4)S3)C2)C[C@H](C)O1 [Example 203, 5-({1-[4-Chloro-2-(trifluoromethyl)benzyl]-1H-indazol-5-yl}methylidene)-2-[3-(2,6-cis-dimethylmorpholin-4-yl)azetidin-1-yl]-1,3-thiazol-4(5H)-one] | 38.8
CC(C)(O)c1ccc(Cn2ncc3cc(/C=C4\SC(N5CCN[C@@H](CO)C5)=NC4=O)ccc32)c(Cl)c1 [Example 229, 5-({1-[2-Chloro-4-(1-hydroxy-1-methylethyl)benzyl]-1H-indazol-5-yl}methylidene)-2-[3-(R)-(hydroxymethyl)piperazin-1-yl]-1,3-thiazol-4(5H)-one] | 580
CC(C)(O)c1ccc(Cn2ncc3cc(/C=C4\SC(N5CCO[C@@H](CO)C5)=NC4=O)ccc32)c(Cl)c1 [Example 231, 5-({1-[2-Chloro-4-(1-hydroxy-1-methylethyl)benzyl]-1H-indazol-5-yl}methylidene)-2-[2-(R)-(hydroxymethyl)morpholin-4-yl]-1,3-thiazol-4(5H)-one] | 490
CN1C2CCC1CN(C1=NC(=O)/C(=C/c3ccc4c(cnn4Cc4ccc(Cl)cc4C(F)(F)F)c3)S1)C2 [Example 101, 5-[1-(4-Chloro-2-trifluoromethyl-benzyl)-1H-indazol-5-ylmethylene]-2-(8-methyl-3,8-diaza-bicyclo[3.2.1]oct-3-yl)-thiazol-4-one] | 21.4
O=C1N=C(N2CCC(O)(C(=O)O)CC2)S/C1=C\c1ccc2c(cnn2Cc2ccc(Cl)cc2C(F)(F)F)c1 [Example 268, 1-[5-({1-[4-Chloro-2-(trifluoromethyl)benzyl]-1H-indazol-5-yl}methylidene)-4-oxo-4,5-dihydro-1,3-thiazol-2-yl]-4-hydroxypiperidine-4-carboxylic acid] | 15
C[C@@H]1CN(C)CCN1C1=NC(=O)/C(=C/c2ccc3c(cnn3Cc3ccc(C(F)(F)F)cc3C(F)(F)F)c2)S1 [Example 192, 5-({1-[2,4-Bis(trifluoromethyl)benzyl]-1H-indazol-5-yl}methylidene)-2-(2-(R),4-dimethylpiperazin-1-yl)-1,3-thiazol-4(5H)-one] | 16
COc1ccc(Cn2ncc3cc(/C=C4\SC(N5CC(C(=O)O)C5)=NC4=O)ccc32)c(C(F)(F)F)c1 [Example 33, 1-{5-[1-(4-M ethoxy-2-trifluoromethyl-benzyl)-1H-indazol-5-ylmethylene]-4-oxo-4,5-dihydro-thiazol-2-yl}-azetidine-3-carboxylic acid] | 4.4
COC(=O)CNC(=O)[C@@H]1CN(C2=NC(=O)/C(=C/c3ccc4c(cnn4Cc4ccc(C(F)(F)F)cc4C(F)(F)F)c3)S2)CCO1 [Example 282, Methyl N-({(2S)-4-[5-({1-[2,4-bis(trifluoromethyl)benzyl]-1H-indazol-5-yl}methylidene)-4-oxo-4,5-dihydro-1,3-thiazol-2-yl]morpholin-2-yl}carbonyl)glycinate] | > 4000
CONC(=O)C1CN(C2=NC(=O)/C(=C/c3ccc4c(cnn4Cc4ccc(C(F)(F)F)cc4C(F)(F)F)c3)S2)CCN1 (stereo not drawn) [Example 272, 4-[5-({1-[2,4-Bis(trifluoromethyl)benzyl]-1H-indazol-5-yl}methylidene)-4-oxo-4,5-dihydro-1,3-thiazol-2-yl]-N-methoxypiperazine-2-carboxamide] | 35
CC(N[C@H]1CCN(C2=NC(=O)/C(=C/c3ccc4c(cnn4Cc4ccc(C(F)(F)F)cc4C(F)(F)F)c3)S2)C1)C(N)=O (stereo partly drawn) [Example 264, N-2-{(3S)-1-[5-({1-[2,4-Bis(trifluoromethyl)benzyl]-1H-indazol-5-yl}methylidene)-4-oxo-4,5-dihydro-1,3-thiazol-2-yl]pyrrolidin-3-yl}alaninamide] | 47
CS(=O)(=O)N1CCCN(C2=NC(=O)/C(=C/c3ccc4c(cnn4Cc4ccc(Cl)cc4C(F)(F)F)c3)S2)CC1 [Example 134, 5-[1-(4-Chloro-2-trifluoromethyl-benzyl)-1H-indazol-5-ylmethylene]-2-(4-methanesulfonyl-[1,4]diazepan-1-yl)-thiazol-4-one] | 5
O=C1CCN(C2=NC(=O)/C(=C/c3ccc4c(cnn4Cc4ccc(C(F)(F)F)cc4C(F)(F)F)c3)S2)CCN1 [Example 118, 1-{5-[1-(2,4-Bis-trifluoromethyl-benzyl)-1H-indazol-5-ylmethylene]-4-oxo-4,5-dihydro-thiazol-2-yl}-[1,4]diazepan-5-one] | 7.3
CC(=O)c1cc(Cl)ccc1Cn1ncc2cc(/C=C3\SC(N4CCN(C)CC4)=NC3=O)ccc21 [Example 97, 5-[1-(2-Acetyl-4-chloro-benzyl)-1H-indazol-5-ylmethylene]-2-(4-methyl-piperazin-1-yl)-thiazol-4-one] | 29
O=C1N=C(N2CCNC[C@@H]2CO)S/C1=C\c1ccc2c(cnn2Cc2ccc(Cl)cc2C(F)(F)F)c1 [Example 105, 5-[1-(4-Chloro-2-trifluoromethyl-benzyl)-1H-indazol-5-ylmethylene]-2-(2-hydroxymethyl-piperazin-1-yl)-thiazol-4-one] | 40.9
C=C(C)c1ccc(Cn2ncc3cc(/C=C4\SC(N5CCN[C@@H](CO)C5)=NC4=O)ccc32)c(C(F)(F)F)c1 [Example 247, 2-[3-(R)-(Hydroxymethyl)piperazin-1-yl]-5-({1-[4-(1-methylethenyl)-2-(trifluoromethyl)benzyl]-1H-indazol-5-yl}methylidene)-1,3-thiazol-4(5H)-one] | 41
O=C1N=C(N2CC(F)C2)S/C1=C\c1ccc2c(cnn2Cc2ccc(Cl)cc2C(F)(F)F)c1 [Example 149, 5-[1-(4-Chloro-2-trifluoromethyl-benzyl)-1H-indazol-5-ylmethylene]-2-(3-fluoro-azetidin-1-yl)-thiazol-4-one] | 55
N[C@@H]1CCCN(C2=NC(=O)/C(=C/c3ccc4c(cnn4Cc4ccc(C(F)(F)F)cc4C(F)(F)F)c3)S2)C1 [Example 53, 2-(3-(R)-Amino-piperidin-1-yl)-5-[1-(2,4-bis-trifluoromethyl-benzyl)-1H-indazol-5-ylmethylene]-thiazol-4-one] | 13
CN1CCN(C2=NC(=O)/C(=C/c3ccc4c(cnn4Cc4ccc(S(C)(=O)=O)cc4C(F)(F)F)c3)S2)CC1 [Compound 15, 5-[1-(4-Methanesulfonyl-2-trifluoromethyl-benzyl)-1H-indazol-5-ylmethylene]-2-(4-methyl-piperazin-1-yl)-thiazol-4-one] | 530
NCC1CN(C2=NC(=O)/C(=C/c3ccc4c(cnn4Cc4ccc(C(F)(F)F)cc4C(F)(F)F)c3)S2)CCO1 (stereo not drawn) [Example 201, 2-[2-(Aminomethyl)morpholin-4-yl]-5-({1-[2,4-bis(trifluoromethyl)benzyl]-1H-indazol-5-yl}methylidene)-1,3-thiazol-4(5H)-one] | 47
O=C1N=C(N2CCN(CCO)CC2)S/C1=C\c1ccc2c(cnn2Cc2ccc(F)cc2C(F)(F)F)c1 [Compound 4, 5-[1-(4-Fluoro-2-trifluoromethyl-benzyl)-1H-indazol-5-ylmethylene]-2-[4-(2-hydroxy-ethyl)-piperazin-1-yl]-thiazol-4-one] | 92

Source: patent US8399681B2, “Substituted aminothiazolone indazoles as estrogen related receptor-alpha modulators” (Janssen Pharmaceutica NV, priority 2009, dated 2013)
